Data published in patent US20140057915A1, “KINASE INHIBITORS” (TOPIVERT PHARMA LIMITED, priority 2012, published 2014).
Read-outs that look alike come from different tables or passages of the source.

Columns and labels:
B-Raf = B-Raf (Homo sapiens, UniProt P15056); assay: Enzyme binding assay (Kinomescan)
Method: Enzyme Binding Assays (Kinomescan)
The kinase enzyme binding activities of compounds disclosed herein were determined using a proprietary assay which measures active site-directed competition binding to an immobilized ligand (Fabian, M. A. et al., Nature Biotechnol., 2005, 23:329-336). These assays were conducted by DiscoverX (formerly Ambit; San Diego, Calif.). The percentage inhibition produced by incubation with a test compound is calculated relative to the non-inhibited control.

[1] = system: intestinal mucosa biopsies from the inflamed regions of the colon of IBD patients; assay: Human biopsy assay (cytokine release from intestinal mucosa biopsies of IBD/UC patients); format: cell-based; conditions: in vitro
Method: Intestinal mucosa biopsies are obtained from the inflamed regions of the colon of IBD patients. The biopsy material is cut into small pieces (2-3 mm) and placed on steel grids in an organ culture chamber at 37° C. in a 5% CO2/95% O2 atmosphere in serum-free media. DMSO control or test compounds at the desired concentration are added to the tissue and incubated for 24 hr in the organ culture chamber. The supernatant is harvested for determination of IL-6, IL-8, IL-1β and TNFα levels by R&D ELISA.

BDF1 mice = assay: TNBS-induced colitis in mice; format: in vivo, mouse; conditions: for inflammatory cell infiltrate in the reticular and lamina propria zones / activity in the in vivo model of colonic inflammation (histopathology analysis): TNBS; for activity in the in vivo model of colonic inflammation (histopathology analysis): 2 days; for ulcer grade and epithelial repair compared to the vehicle control: dosed orally at 5 mg/kg
Method: (C) TNBS-Induced Colitis in Mice […] On Day 0 of the study TNBS (200 μL) is administered intra-colonically via a plastic catheter followed by BID dosing of the vehicle, reference or test compound for 2 or 4 days. During the study animals are weighed every day and stool observations are made and recorded as a score, based on stool consistency. At the time of sacrifice on Day 2 (or Day 4) the large intestine is removed and the length and weight recorded. Sections of the colon are taken for either MPO analysis to determine neutrophil infiltration or for histopathology involving scoring to determine disease severity.

[2] = Hepatic microsomal stability; format: in vitro ADME, human; conditions: for Mean hepatic extraction ratio (Eh) / microsomal CLint at 0.1 μM: human hepatic microsomes, arithmetic mean of two experiments; for microsomal CLint at 0.1 μM: pooled liver microsomes, read-out: Mean intrinsic clearance; for hepatic clearance: summary of Tables 9a and 9b (microsomes and hepatocytes; human, dog, rat)
Method: (§1) Hepatic Microsomal Stability
(§2) • Microsomal stability assays were performed with incubations of test compounds at 0.1 μM (n=2, final DMSO concentration 0.25%), and carried out using pooled human, dog and rat hepatic microsomes from Xenotech (Lots 1210153, 0810143 and 1110042, respectively) at 0.25 mg protein/mL in the presence of co-factor, NADPH. The incubations were performed at 37° C. with 100 μL aliquots taken from the incubation, at 0, 2, 5, 10 and 20 minutes and reactions terminated by addition of 100 μL of acetonitrile containing carbamazepine as analytical internal standard. […] Half-life values were calculated from the relationship
(§3) where λ was the slope of the Ln concentration vs time curve. • The in vitro intrinsic clearance, CIint (mL/min/kg), was calculated and scaled to hepatic extraction ratios using the following scaling parameters and formulae.
(§4) CIint(tissue clearance) mL/min/kg=[0.693/t½(min)]×[1/microsomal protein concentration mg/mL]×[mg microsomes/g liver]×[g liver/kg body weight]
(§5) CIint(hepatic clearance) mL/min/kg=hepatic blood flow×CIint/(hepatic blood flow+CIint)
(§6) Hepatic extraction ratio(Eh)=CIint(hepatic clearance) mL/min/kg/hepatic blood flow(mL/min/kg)

[3] = Hepatic microsomal stability; format: in vitro ADME; conditions: arithmetic mean of two experiments; for microsomal CLint at 0.1 μM: pooled liver microsomes, read-out: Mean intrinsic clearance
Method: as §1, §2, §3, §4, §5, §6

[4] = Cryopreserved hepatocyte stability; format: in vitro ADME; conditions: arithmetic mean of two experiments; for hepatocyte CLint at 0.1 μM: read-out: Mean intrinsic clearance
Method: Cryopreserved Hepatocyte Stability
• Hepatocyte stability assays were performed with incubations of test compounds (0.1 μM initial concentration, n=2) carried out with pooled human, dog and rat cryopreserved hepatocytes from Celsis (Lot numbers RRW, KLI and WAP, respectively) at a cell density of 0.5 million cells/mL. The incubations were performed at 37° C. with 100 μL samples taken from the incubation, at 0, 10, 20, 45 and 90 minutes, and reactions terminated by addition of 100 μL of acetonitrile containing carbamazepine as analytical internal standard. […] Half-life values were calculated from the relationship
T1/2(min)=−0.693/λ • where λ was the slope of the Ln concentration vs time curve. • Standard compounds testosterone, midazolam and 4-methylumbelliferone are included in the assay design. These compounds give an indication of the metabolic capacity of the cryopreserved preparations for both Phase I and Phase II reactions. • In vitro intrinsic clearance (CIint), as μL/min/million cells was calculated by applying the following formula to the half-life values:
CIint(Tissue Clearance) mL/min/kg=[0.693/t½(min)]×[1/hepatocyte concentration(million cells/mL)]×[million cells/g liver]×[g liver/kg body weight]
CIint(Hepatic clearance) mL/min/kg=hepatic blood flow×CIint/(hepatic blood flow+CIint)
Hepatic extraction ratio(Eh)=CIint(Hepatic clearance) mL/min/kg/hepatic blood flow(mL/min/kg)

[5] = biological target: T1, human ether a go-go (hERG) channel (Homo sapiens, UniProt Q12809); assay: hERG inhibition (IonWorks patch clamp electrophysiology); format: cell-based; conditions: maximum final assay concentration 3 μM
T1 construct: a Chinese Hamster Lung cell line stably expressing the full length hERG channel
Method: Eight-point concentration curves were generated using serial 3-fold dilutions from the maximum final assay concentration (3 μM). Electrophysiological recordings were made from a Chinese Hamster Lung cell line stably expressing the full length hERG channel. Single cell ionic currents were measured in the perforated patch clamp configuration (100 μg/mL) amphotericin) at room temperature (21-23° C.) using an IonWorks Quattro instrument. The internal solution contained (mM): 140 KCl, 1 MgCl2, 1 EGTA, 20 HEPES and was buffered to pH 7.3. The external solution contained (mM):138 NaCl, 2.7 KCl, 0.9 CaCl2, 0.5 MgCl2, 8 Na2HPO4, 1.5 KH2PO4, also buffered to pH 7.3. Cells were clamped at a holding potential of −70 mV for 30 s and then stepped to +40 mV for 1 s. This was followed by a hyperpolarising step of 1s to −30 mV to evoke the hERG tail current. This sequence was repeated 5 times at a frequency of 0.25 Hz. Currents were measured from the tail step at the 5th pulse, and referenced to the holding current. Compounds were then incubated for 6-7 minutes prior to a second measurement of the hERG signal using an identical pulse train. Eight-point concentration curves were generated using serial 3-fold dilutions from the maximum final assay concentration (3 μM).

[6] = human cryopreserved hepatocytes
[7] = pooled cryopreserved hepatocytes, dog cryopreserved hepatocytes
[8] = pooled cryopreserved hepatocytes, rat cryopreserved hepatocytes
[9] = pooled cryopreserved human hepatocytes

Sequence of B-Raf (P15056 whole entry): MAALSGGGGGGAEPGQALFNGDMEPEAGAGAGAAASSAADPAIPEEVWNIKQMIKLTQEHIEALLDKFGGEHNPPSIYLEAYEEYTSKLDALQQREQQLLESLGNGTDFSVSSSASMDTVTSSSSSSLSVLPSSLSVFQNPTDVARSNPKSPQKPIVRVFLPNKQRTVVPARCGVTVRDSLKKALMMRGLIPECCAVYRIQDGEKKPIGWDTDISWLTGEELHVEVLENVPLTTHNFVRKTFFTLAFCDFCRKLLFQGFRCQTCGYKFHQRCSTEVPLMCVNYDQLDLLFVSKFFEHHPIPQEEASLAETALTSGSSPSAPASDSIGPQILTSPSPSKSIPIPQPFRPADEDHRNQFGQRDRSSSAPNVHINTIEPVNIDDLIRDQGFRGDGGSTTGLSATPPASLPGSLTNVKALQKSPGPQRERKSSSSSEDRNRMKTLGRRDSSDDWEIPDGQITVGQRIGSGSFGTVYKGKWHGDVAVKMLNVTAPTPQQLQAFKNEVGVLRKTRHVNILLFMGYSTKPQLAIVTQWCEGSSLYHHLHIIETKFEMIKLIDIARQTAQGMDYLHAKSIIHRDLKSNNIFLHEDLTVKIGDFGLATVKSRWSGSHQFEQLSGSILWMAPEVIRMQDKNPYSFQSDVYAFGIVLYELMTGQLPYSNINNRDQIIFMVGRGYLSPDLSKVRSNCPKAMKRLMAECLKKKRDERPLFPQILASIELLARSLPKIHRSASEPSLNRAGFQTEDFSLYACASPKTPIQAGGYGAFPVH
T1 sequence (Q12809 whole entry): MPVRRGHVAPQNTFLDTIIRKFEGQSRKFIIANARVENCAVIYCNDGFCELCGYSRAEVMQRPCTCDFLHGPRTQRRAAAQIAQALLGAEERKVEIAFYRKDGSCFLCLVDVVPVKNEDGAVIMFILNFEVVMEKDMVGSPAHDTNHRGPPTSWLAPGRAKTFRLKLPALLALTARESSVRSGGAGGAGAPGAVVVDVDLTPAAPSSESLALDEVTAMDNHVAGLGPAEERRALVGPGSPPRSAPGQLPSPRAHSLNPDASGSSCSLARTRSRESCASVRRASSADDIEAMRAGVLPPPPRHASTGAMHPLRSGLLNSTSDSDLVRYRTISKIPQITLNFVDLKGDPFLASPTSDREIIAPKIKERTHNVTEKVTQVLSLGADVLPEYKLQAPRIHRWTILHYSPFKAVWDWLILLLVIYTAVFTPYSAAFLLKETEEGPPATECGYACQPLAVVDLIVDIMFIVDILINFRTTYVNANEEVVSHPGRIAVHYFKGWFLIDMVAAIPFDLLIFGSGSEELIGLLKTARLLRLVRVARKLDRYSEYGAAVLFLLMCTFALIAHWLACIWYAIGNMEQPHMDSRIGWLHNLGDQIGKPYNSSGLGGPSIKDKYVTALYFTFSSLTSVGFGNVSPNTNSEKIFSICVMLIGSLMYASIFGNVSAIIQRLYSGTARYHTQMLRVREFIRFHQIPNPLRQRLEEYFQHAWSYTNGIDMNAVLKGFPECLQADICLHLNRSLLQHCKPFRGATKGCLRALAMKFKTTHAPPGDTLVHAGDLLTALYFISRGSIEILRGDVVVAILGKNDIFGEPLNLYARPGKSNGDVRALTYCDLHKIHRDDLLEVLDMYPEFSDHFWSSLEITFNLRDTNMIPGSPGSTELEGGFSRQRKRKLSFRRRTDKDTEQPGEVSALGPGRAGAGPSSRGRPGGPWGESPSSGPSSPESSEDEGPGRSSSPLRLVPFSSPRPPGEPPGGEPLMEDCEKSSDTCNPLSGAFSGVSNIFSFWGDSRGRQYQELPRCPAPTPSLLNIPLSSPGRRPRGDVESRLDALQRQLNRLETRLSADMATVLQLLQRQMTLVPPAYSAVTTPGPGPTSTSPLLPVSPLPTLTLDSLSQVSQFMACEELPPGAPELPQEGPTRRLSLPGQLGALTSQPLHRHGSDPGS

## COc1cc(Nc2nccc(Oc3ccc(NC(=O)Nc4cc(C(C)C)nn4-c4ccc(C)cc4)c4ccccc34)n2)cc(C(=O)NCCN2CCOCC2)c1 [Example 8, 3-((4-((4-(3-(3-Isopropyl-1-(p-tolyl)-1H-pyrazol-5-yl)ureido)naphthalen-1-yl)oxy)pyrimidin-2-yl)amino)-5-methoxy-N-(2-morpholinoethyl)benzamide]
B-Raf; read-out: % Inhibition of kinase binding at 500 nM, B-Raf
  inhibition at 0.5 µM: 29%

## C#Cc1cc(Nc2nccc(Oc3ccc(NC(=O)Nc4cc(C(C)(C)C)nn4-c4ccc(OC)cc4)c4ccccc34)n2)cc(C(=O)NCCN2CCOCC2)c1 [Example 77, 3-((4-((4-(3-(3-(tert-Butyl)-1-(4-methoxyphenyl)-1H-pyrazol-5-yl)ureido)-naphthalen-1-yl)oxy)pyrimidin-2-yl)amino)-5-ethynyl-N-(2-morpholinoethyl)benzamide]
B-Raf; KINOMEscan
  effect on the binding of the kinase B-Raf to its standard ligand: did not have any effect on the binding
[1]
  IL-1b, IL-6 and IL-8 release from biopsies of UC patients: markedly reduced
BDF1 mice
  inflammatory cell infiltrate in the reticular and lamina propria zones: marked reduction
  activity in the in vivo model of colonic inflammation (histopathology analysis): significant activity
  ulcer grade and epithelial repair compared to the vehicle control: marked improvements
[2]
  Mean hepatic extraction ratio (Eh): 0.94
  microsomal CLint at 0.1 μM: 308 µL/min/mg
  hepatic clearance: high hepatic clearance
[3]; dog hepatic microsomes
  Mean hepatic extraction ratio (Eh): 0.94
  microsomal CLint at 0.1 μM: 189 µL/min/mg
[3]; rat hepatic microsomes
  microsomal CLint at 0.1 μM: 120 µL/min/mg
  Mean hepatic extraction ratio (Eh): 0.82
[4]; dog cryopreserved hepatocytes
  Mean hepatic extraction ratio (Eh): 0.87
[4]; [6]
  Mean hepatic extraction ratio (Eh): 0.69
[4]; [7]
  hepatocyte CLint at 0.1 μM: 26 µL/min/1e6 cells
[4]; [8]
  hepatocyte CLint at 0.1 μM: 12 µL/min/1e6 cells
[4]; [9]
  hepatocyte CLint at 0.1 μM: 16 µL/min/1e6 cells
[4]; rat cryopreserved hepatocytes
  Mean hepatic extraction ratio (Eh): 0.55
[5]
  IC50: > 3 µM

## C#Cc1cc(Nc2nccc(Oc3ccc(NC(=O)Nc4cc(C(C)(C)C)nn4-c4ccc(N(C)C)cc4)c4ccccc34)n2)cc(C(=O)NCCN2CCOCC2)c1 [Example 80, 3-((4-((4-(3-(3-(tert-Butyl)-1-(4-(dimethylamino)phenyl)-1H-pyrazol-5-yl)ureido)naphthalen-1-yl)oxy)pyrimidin-2-yl)amino)-5-ethynyl-N-(2-morpholinoethyl)-benzamide]
[2]
  Mean hepatic extraction ratio (Eh): 0.93
  microsomal CLint at 0.1 μM: 216 µL/min/mg
  hepatic clearance: high hepatic clearance
[3]; dog hepatic microsomes
  Mean hepatic extraction ratio (Eh): 0.91
  microsomal CLint at 0.1 μM: 146 µL/min/mg
[3]; rat hepatic microsomes
  microsomal CLint at 0.1 μM: 91 µL/min/mg
  Mean hepatic extraction ratio (Eh): 0.77
[4]; dog cryopreserved hepatocytes
  Mean hepatic extraction ratio (Eh): 0.73
[4]; [6]
  Mean hepatic extraction ratio (Eh): <0.61
[4]; [7]
  hepatocyte CLint at 0.1 μM: 11 µL/min/1e6 cells
[4]; [8]
  hepatocyte CLint at 0.1 μM: < 8 µL/min/1e6 cells
[4]; [9]
  hepatocyte CLint at 0.1 μM: < 11 µL/min/1e6 cells
[4]; rat cryopreserved hepatocytes
  Mean hepatic extraction ratio (Eh): <0.44
[5]
  IC50: > 3 µM

## C#Cc1cc(Nc2nccc(Oc3ccc(NC(=O)Nc4cc(C(C)C)nn4-c4ccc(C)cc4)c4ccccc34)n2)cc(C(=O)NCCN2CCOCC2)c1 [Example 46, 3-ethynyl-5-((4-((4-(3-(3-isopropyl-1-(p-tolyl)-1H-pyrazol-5-yl)ureido)naphthalen-1-yl)oxy)pyrimidin-2-yl)amino)-N-(2-morpholinoethyl)benzamide]
[1]
  IL-1b, IL-6 and IL-8 release from biopsies of UC patients: markedly reduced
BDF1 mice
  inflammatory cell infiltrate in the reticular and lamina propria zones: marked reduction
  activity in the in vivo model of colonic inflammation (histopathology analysis): significant activity
  ulcer grade and epithelial repair compared to the vehicle control: marked improvements
